# According to paper PMC7407158, “Reprogramming of the Antibacterial Drug Vancomycin Results in Potent Antiviral Agents Devoid of Antibacterial Activity” (Pharmaceuticals, 2020):
# Like-named read-outs stand apart in the source and are kept apart here.
# Tests used:
# [1] = system: thymidine kinase deficient HSV-1/TK- mutant; experiment: microbe, parasite or virus in culture; assay type: cell-based, herpes simplex virus type 1; settings: Human alphaherpesvirus 1, HEL, read-out: Antiviral EC50 HSV-1/TK-
# in vitro [2] = settings: human
# [3] = system: herpes simplex virus type 2 (HSV-2, strain G); experiment: CPE reduction, MTS assay, HSV-2 in HEL cells; assay type: cell-based; settings: Human alphaherpesvirus 2, protection against virus-induced CPE, read-out: Antiviral EC50 HSV-2
# [4] = system: herpes simplex virus type 1 (HSV-1 strain KOS); experiment: CPE reduction, MTS assay, HSV-1 in HEL cells; assay type: cell-based; settings: Human alphaherpesvirus 1, protection against virus-induced CPE, read-out: Antiviral EC50 HSV-1
# in vitro [5] = settings: human; remark: listed apart in the source
# [6] = system: vaccinia virus (strain Lederle); experiment: microbe, parasite or virus in culture; assay type: cell-based; settings: Orthopoxvirus vaccinia, HEL, read-out: Antiviral EC50 Vaccinia Virus
# in vitro [7] = settings: African green monkey
# influenza A or B viruses = experiment: Anti-influenza virus activity in MDCK cells, MTS assay, overall for the three influenza A or B viruses; assay type: cell-based, Influenza A and B viruses
# [8] = system: HEL, human embryonic lung fibroblast cells; settings: read-out: CC50 HEL; mock-infected HEL cells, MTS assay
# [9] = system: Vero, African Green monkey kidney cells; settings: read-out: CC50 Vero; mock-infected Vero cells, MTS assay
# [10] = system: HeLa, human cervix carcinoma cells; settings: read-out: CC50 HeLa; mock-infected HeLa cells, MTS assay
# [11] = system: S. epidermidis ATCC 35984; experiment: Broth microdilution MIC, S. epidermidis ATCC 35984; assay type: cell-based; settings: for MIC: Staphylococcus epidermidis
# Experimental: (§1) Antibacterial tests were carried out by the broth microdilution method on a panel of eight Gram-positive bacterial strains, using vancomycin and teicoplanin as reference compounds.
# E. faecalis 15,376 VanA = experiment: Broth microdilution MIC, E. faecalis 15,376 VanA; assay type: cell-based; settings: for MIC: Enterococcus faecalis, read-out: In Vitro MIC
# Experimental: as §1
# A/PR/8/34 virus = assay type: cell-based, Influenza A virus
# B. subtilis ATCC 6633 = experiment: Broth microdilution MIC, B. subtilis ATCC 6633; assay type: cell-based; settings: for MIC: Bacillus subtilis
# Experimental: as §1
# [12] = system: S. aureus MSSA ATCC 29213; experiment: Broth microdilution MIC, S. aureus MSSA ATCC 29213; assay type: cell-based; settings: for MIC: Staphylococcus aureus, read-out: In Vitro MIC
# Experimental: as §1
# MDCK cells = settings: read-out: CC50 (50% cytotoxic concentration), mock-infected, MTS cell viability assay, three days
# E. faecalis ATCC 29212 = experiment: Broth microdilution MIC, E. faecalis ATCC 29212; assay type: cell-based; settings: for MIC: Enterococcus faecalis
# Experimental: as §1
# [13] = system: S. aureus MRSA ATCC 33591; experiment: Broth microdilution MIC, S. aureus MRSA ATCC 33591; assay type: cell-based; settings: for MIC: Staphylococcus aureus, read-out: In Vitro MIC
# Experimental: as §1
# [14] = system: E. faecalis ATCC 51,299 VanB; experiment: Broth microdilution MIC, E. faecalis ATCC 51,299 VanB; assay type: cell-based; settings: for MIC: Enterococcus faecalis, ATCC51, read-out: In Vitro MIC
# Experimental: as §1
# S. epidermidis mecA = experiment: Broth microdilution MIC, S. epidermidis mecA; assay type: cell-based; settings: for MIC: Staphylococcus epidermidis, read-out: In Vitro MIC
# Experimental: as §1
# in vitro [15] = settings: dog
# [16] = system: Influenza B (B/Ned/537/05); experiment: Influenza CPE reduction in MDCK cells, MTS assay, influenza B; assay type: cell-based; settings: Influenza B virus, inhibition of virus-induced CPE by MTS assay, read-out: Antiviral EC50 Influenza B
# [17] = system: Influenza A/H3N2 (A/Victoria/361/11); experiment: Influenza CPE reduction in MDCK cells, MTS assay, A/H3N2; assay type: cell-based; settings: Influenza A virus, H3N2; MDCK cells; A/Victoria/361/11; inhibition of virus-induced CPE by MTS assay; read-out: Antiviral EC50 Influenza A/H3N2
# [18] = system: Influenza A/H1N1 (A/Ned/378/05); experiment: Influenza CPE reduction in MDCK cells, MTS assay, A/H1N1; assay type: cell-based; settings: Influenza A virus, H1N1; MDCK cells; A/Ned/378/05; inhibition of virus-induced CPE by MTS assay; read-out: Antiviral EC50 Influenza A/H1N1
# [19] = S. aureus MSSA ATCC 29213, broth microdilution
# [20] = ATCC35984, read-out: In Vitro MIC
# [21] = ATCC6633, read-out: In Vitro MIC
# [22] = ATCC29212, read-out: In Vitro MIC
molecule,measurement,setting,value
Nc1nc2c(ncn2COCCO)c(=O)[nH]1 [Aciclovir],EC50,[1],146 µM
same,CC50,in vitro [2],> 250 µM
same,EC50,[3],0.05 µM
same,EC50,[4],2.4 µM
same,CC50,in vitro [5],> 250 µM
same,EC50,[6],> 250 µM
same,CC50,in vitro [7],> 250 µM
CCCCSC1=C(SCCCC)C(=O)N(CCOCCOCCOCCOCc2cn(C3C(=O)NC(CC(N)=O)C(=O)NC4C(=O)NC5C(=O)NC(C(=O)NC(C(=O)O)c6cc(O)cc(O)c6-c6cc5ccc6O)C(O)c5ccc(c(Cl)c5)Oc5cc4cc(c5O)Oc4ccc(cc4Cl)C3O)nn2)C1=O (stereo not drawn) [Compound 7],anti-influenza virus activity (in words),influenza A or B viruses,robust activity
same,CC50,[8],> 100 µM
same,CC50,[9],> 100 µM
same,CC50,[10],> 100 µM
same,MIC,"[11]; ATCC35984, S. epidermidis ATCC 35984, broth microdilution, read-out: In Vitro MIC",32 µg/mL
same,MIC,"E. faecalis 15,376 VanA",256 µg/mL
same,virus-induced cytopathic effect (CPE) upon microscopic inspection,A/PR/8/34 virus,no virus-induced cytopathic effect (CPE) was observed
same,MIC,"B. subtilis ATCC 6633; ATCC6633, B. subtilis ATCC 6633, broth microdilution, read-out: In Vitro MIC",32 µg/mL
same,MIC,[12]; [19],256 µg/mL
same,CC50,MDCK cells,18 µM
same,MIC,"E. faecalis ATCC 29212; ATCC29212, E. faecalis ATCC 29212, broth microdilution, read-out: In Vitro MIC",32 µg/mL
same,MIC,[13],256 µg/mL
same,MIC,[14],256 µg/mL
same,MIC,S. epidermidis mecA,32 µg/mL
"CC(=O)N[C@H]1[C@H]([C@H](O)[C@H](O)CO)OC(C(=O)O)=C[C@@H]1N=C(N)N [Zanamivir, reference compound]",CC50,in vitro [15],> 100 µM
same,EC50,[16],4.5 µM
same,EC50,[17],9 µM
same,EC50,[18],0.4 µM
CCCCCCS(=O)(=O)NCCNC(=O)[C@H]1NC(=O)[C@H]2NC(=O)[C@H](NC(=O)[C@@H]3NC(=O)[C@H](CC(N)=O)NC(=O)[C@H](N)[C@H](O)c4ccc(c(Cl)c4)Oc4cc3cc(c4O)Oc3ccc(cc3Cl)[C@H]2O)c2ccc(O)c(c2)-c2c(O)cc(O)cc21 [Compound 13],anti-influenza virus activity (in words),influenza A or B viruses,only slightly active
same,CC50,in vitro [15],> 100 µM
same,EC50,[16],> 100 µM
same,MIC,[11]; [20],128 µg/mL
same,MIC,"E. faecalis 15,376 VanA",256 µg/mL
same,EC50,[17],14 µM
same,MIC,B. subtilis ATCC 6633; [21],256 µg/mL
same,MIC,[12],256 µg/mL
same,EC50,[18],34 µM
same,MIC,E. faecalis ATCC 29212; [22],64 µg/mL
same,MIC,[13],256 µg/mL
same,MIC,[14],128 µg/mL
same,MIC,S. epidermidis mecA,128 µg/mL
CCCCCCCCCCOCc1cn(CCOCCOCCOCCOCc2cn(CCNC(=O)[C@H]3NC(=O)[C@H]4NC(=O)[C@H](NC(=O)[C@@H]5NC(=O)[C@H](CC(N)=O)NC(=O)[C@H](N)[C@H](O)c6ccc(c(Cl)c6)Oc6cc5cc(c6O)Oc5ccc(cc5Cl)[C@H]4O)c4ccc(O)c(c4)-c4c(O)cc(O)cc43)nn2)nn1 [Compound 11],MIC,[11]; [20],256 µg/mL
same,MIC,"E. faecalis 15,376 VanA",256 µg/mL
same,MIC,B. subtilis ATCC 6633; [21],32 µg/mL
same,MIC,[12],256 µg/mL
same,CC50,MDCK cells,≥ 20 µM
same,MIC,E. faecalis ATCC 29212; [22],128 µg/mL
same,MIC,[13],256 µg/mL
same,MIC,[14],256 µg/mL
same,MIC,S. epidermidis mecA,256 µg/mL
"CN[C@H](CC(C)C)C(=O)N[C@H]1C(=O)N[C@@H](CC(N)=O)C(=O)N[C@H]2C(=O)N[C@H]3C(=O)N[C@H](C(=O)N[C@H](C(=O)O)c4cc(O)cc(O)c4-c4cc3ccc4O)[C@H](O)c3ccc(c(Cl)c3)Oc3cc2cc(c3O[C@@H]2O[C@H](CO)[C@@H](O)[C@H](O)[C@H]2O[C@H]2C[C@](C)(N)[C@H](O)[C@H](C)O2)Oc2ccc(cc2Cl)[C@H]1O [VAN, vancomycin]",MIC,[11]; [20],2 µg/mL
same,MIC,"E. faecalis 15,376 VanA",256 µg/mL
same,MIC,B. subtilis ATCC 6633; [21],0.5 µg/mL
same,MIC,[12],0.5 µg/mL
same,MIC,E. faecalis ATCC 29212; [22],1 µg/mL
same,MIC,[13],0.5 µg/mL
same,MIC,[14],128 µg/mL
same,MIC,S. epidermidis mecA,4 µg/mL
CCCCCCS(=O)(=O)NC1C(=O)NC(CC(N)=O)C(=O)NC2C(=O)NC3C(=O)NC(C(=O)NC(C(=O)O)c4cc(O)cc(O)c4-c4cc3ccc4O)C(O)c3ccc(c(Cl)c3)Oc3cc2cc(c3O)Oc2ccc(cc2Cl)C1O (stereo not drawn) [Compound 8],anti-influenza virus activity (in words),influenza A or B viruses,inactive
same,CC50,in vitro [15],100 µM
same,EC50,[16],> 100 µM
same,MIC,[11]; [20],32 µg/mL
same,MIC,"E. faecalis 15,376 VanA",256 µg/mL
same,EC50,[17],> 100 µM
same,MIC,B. subtilis ATCC 6633; [21],32 µg/mL
same,MIC,[12],256 µg/mL
same,EC50,[18],> 100 µM
same,MIC,E. faecalis ATCC 29212; [22],32 µg/mL
same,MIC,[13],256 µg/mL
same,MIC,[14],128 µg/mL
same,MIC,S. epidermidis mecA,64 µg/mL
teicoplanin [reference compound],In Vitro MIC,"[11]; S. epidermidis ATCC 35984, broth microdilution",4 µg/mL
same,In Vitro MIC,"E. faecalis 15,376 VanA; E. faecalis 15,376 VanA, broth microdilution",256 µg/mL
same,In Vitro MIC,"B. subtilis ATCC 6633; B. subtilis ATCC 6633, broth microdilution",0.5 µg/mL
same,In Vitro MIC,[12]; [19],0.5 µg/mL
same,In Vitro MIC,"E. faecalis ATCC 29212; E. faecalis ATCC 29212, broth microdilution",1 µg/mL
same,In Vitro MIC,"[13]; S. aureus MRSA ATCC 33591, broth microdilution",0.5 µg/mL
same,In Vitro MIC,"[14]; E. faecalis ATCC 51,299 VanB, broth microdilution",0.5 µg/mL
same,In Vitro MIC,"S. epidermidis mecA; S. epidermidis mecA, broth microdilution",16 µg/mL
CCCCSC1=C(SCCCC)C(=O)N(CCOCCOCCOCCOCc2cn(CCNC(=O)[C@H]3NC(=O)[C@H]4NC(=O)[C@H](NC(=O)[C@@H]5NC(=O)[C@H](CC(N)=O)NC(=O)[C@H](N)[C@H](O)c6ccc(c(Cl)c6)Oc6cc5cc(c6O)Oc5ccc(cc5Cl)[C@H]4O)c4ccc(O)c(c4)-c4c(O)cc(O)cc43)nn2)C1=O [Compound 12],anti-influenza virus activity (in words),influenza A or B viruses,only slightly active
same,MIC,[11]; [20],128 µg/mL
same,MIC,"E. faecalis 15,376 VanA",256 µg/mL
same,MIC,B. subtilis ATCC 6633; [21],256 µg/mL
same,MIC,[12],256 µg/mL
same,CC50,MDCK cells,100 µM
same,MIC,E. faecalis ATCC 29212; [22],128 µg/mL
same,MIC,[13],256 µg/mL
same,MIC,[14],256 µg/mL
same,MIC,S. epidermidis mecA,256 µg/mL
Nc1nc(O)c2ncn(COC(CO)CO)c2n1 [Ganciclovir],CC50,in vitro [2],> 100 µM
same,EC50,[3],0.03 µM
same,EC50,[4],0.1 µM
same,CC50,in vitro [5],> 100 µM
same,EC50,[6],> 100 µM
same,CC50,in vitro [7],> 100 µM
Nc1ccn(C[C@@H](CO)OCP(=O)(O)O)c(=O)n1 [Cidofovir],EC50,[1],5.8 µM
same,CC50,in vitro [2],> 250 µM
same,EC50,[3],1 µM
same,EC50,[4],2.4 µM
same,CC50,in vitro [5],> 250 µM
same,EC50,[6],37 µM
same,CC50,in vitro [7],> 250 µM
